According to paper PMC6990646 (ACS Omega, 2020):
Converted amounts (≈) assume the structure as drawn. “And” between values parts separate entries of the source, which are not always exact repeats. Equal values may be shown once.

Assays:
HAV HM175 = assay: Plaque reduction assay against HAV HM175; assay type: cell-based, hepatitis A virus HM 175; details: hepatitis A virus HM 175, plaque reduction
[1] = system: ED-43/SG-Feo (VYG) replicon of HCV genotype 4a; assay: Antiviral bioassay against ED-43/SG-Feo; assay type: cell-based; details: for IC50: HCVcc genotype 4; for mean % of reduction, HCVcc genotype 4: nontoxic dose of compound
HAdV7 = assay: Plaque reduction assay against adenovirus 7; assay type: cell-based, human adenovirus type 7; details: for mean % of reduction, adenovirus type 7: nontoxic dose of compound
Vero cell line = assay: Cytotoxicity test on Vero cell line; assay type: cell-based; details: herpes simplex virus table; host cells Vero
FRHK-4 cell line = assay: Cytotoxicity test on FRHK-4 cell line; assay type: cell-based; details: hepatitis A virus HM 175 columns; host cells FRHK4
Huh 7.5 cell line = assay: Cytotoxicity test on Huh 7.5 cell line; assay type: cell-based; details: HCVcc genotype 4 columns; host cells Huh 7.5
Hep2 cell line = assay: Cytotoxicity test on Hep2 cell line; assay type: cell-based; details: adenovirus type 7 columns; host cells Hep-2
HSV-1 = details: for IC50: herpes simplex virus, plaque reduction; for mean % of reduction, herpes simplex virus: nontoxic dose of compound
ADV7 = details: cited from earlier work

| Structure (SMILES) | IC50 (HAV HM175) [µg/mL] | IC50 [1] [µg/mL] | mean % of reduction, HCVcc genotype 4 [1] [%] | IC50 (HAdV7; adenovirus type 7, plaque reduction) [µg/mL] | mean % of reduction, adenovirus type 7 (HAdV7) [%] | CC50 (Vero cell line) [µg/mL] | CC50 (FRHK-4 cell line) [µg/mL] | CC50 (Huh 7.5 cell line) [µg/mL] | CC50 (Hep2 cell line) [µg/mL] | IC50 (HSV-1) [µg/mL] | mean % of reduction, herpes simplex virus (HSV-1) | EC50 (ADV7) [µg/mL] |
| --- | --- | --- | --- | --- | --- | --- | --- | --- | --- | --- | --- | --- |
| O=C(CNc1nc(NS(=O)(=O)c2ccccc2)ncc1-c1nc2ccccc2s1)c1ccc(Br)cc1 [9a, N-(5-(Benzo[d]thiazol-2-yl)-4-((2-(4-bromophenyl)-2-oxoethyl)amino)pyrimidin-2-yl)benzenesulfonamide] | 78 (≈ 134 µM) | 120 (≈ 207 µM) | 50 ± 0.9 | 120 (≈ 207 µM) | 50 ± 0.9 | 270 (≈ 465 µM) | 240 (≈ 413 µM) | 250 (≈ 431 µM) | 260 (≈ 448 µM) | 63 (≈ 109 µM) | 90% and 90 ± 2.5% |  |
| O=C(CNc1nc(NS(=O)(=O)c2ccccc2)ncc1-c1nc2ccccc2s1)c1ccc(Cl)cc1 [9b, N-(5-(Benzo[d]thiazol-2-yl)-4-((2-(4-chlorophenyl)-2-oxoethyl)amino)pyrimidin-2-yl)benzenesulfonamide] | 86 (≈ 160 µM) | 86 (≈ 160 µM) | 60 ± 1.2 |  | 40 ± 0.8 | 240 (≈ 448 µM) | 230 (≈ 429 µM) | 250 (≈ 466 µM) |  | 74 (≈ 138 µM) | 70% and 70 ± 1.5% |  |
| Cc1ccc(S(=O)(=O)Nc2nc(N)c(-c3nc4ccccc4s3)c(-c3ccc(F)cc3)n2)cc1 [14g, N-(4-Amino-5-(benzo[d]thiazol-2-yl)-6-(4-fluorophenyl)pyrimidin-2-yl)-4-methylbenzenesulfonamide] | 81 (≈ 165 µM) |  | 20 ± 0.7 |  | 40 ± 0.8 | 240 (≈ 488 µM) | 230 (≈ 468 µM) |  |  | 50 (≈ 102 µM) | 80% and 80 ± 2.4% |  |
| Cc1ccc(S(=O)(=O)Nc2nc(N)c(-c3nc4ccccc4s3)c(-c3ccc(Cl)cc3)n2)cc1 [14h, N-(4-Amino-5-(benzo[d]thiazol-2-yl)-6-(4-chlorophenyl)pyrimidin-2-yl)-4-methylbenzenesulfonamide] | 74 (≈ 146 µM) |  | 20 ± 0.5 |  | 40 ± 0.7 | 230 (≈ 453 µM) | 200 (≈ 394 µM) |  |  | 71 (≈ 140 µM) | 70% and 70 ± 2.0% |  |
| NC(=O)c1ncn([C@@H]2O[C@H](CO)[C@@H](O)[C@H]2O)n1 [ribavirin] |  |  |  |  |  |  |  |  |  |  |  | 27.8 (≈ 114 µM) |
